According to publication PMC9865752, “Design and Synthesis of (Z)-2-(Benzylamino)-5-benzylidenethiazol-4(5H)-one Derivatives as Tyrosinase Inhibitors and Their Anti-Melanogenic and Antioxidant Effects” (Molecules, 2023):

Assays:
[1] = system: B16F10 cells; assay: Cell viability (EZ-Cytox assay); type: cell-based, murine; settings: 0, 1, 2, 5, 10, 20 µM, 72 h
Experimental: Before these experiments were performed, the influence of these derivatives on cytotoxicity in B16F10 cells was examined to determine their optimal concentration range for B16F10 cell experiments. The cytotoxicity of derivatives 7 and 8 at six concentrations (0, 1, 2, 5, 10, and 20 µM) was assessed using the EZ-Cytox assay.
Cytotoxicity assays in B16F10 cells were performed using the EZ-Cytox solution (EZ-3000, DoGenBio, Seoul, Republic of Korea). Briefly, B16F10 cells were seeded at a density of 1 × 10^4 cells per well and cultured at 37 °C in a 5% CO2 atmosphere for 24 h. […] Then, the EZ-Cytox solution (10 μL aliquot) was added to each well. After 2 h of incubation at 37 °C, the optical density of each well was measured at 450 nm using a microplate reader (VersaMax; Molecular Devices).

[2] = target: T1, B16F10 cellular tyrosinase (Mus musculus, UniProt P11344); assay: Cellular anti-tyrosinase activity assay; type: cell-based, murine; settings: α-MSH plus IBMX stimulated B16F10 cells, 72 h
T1 construct: host or cells: B16F10 murine melanoma cells
T1 sequence (P11344 19-533): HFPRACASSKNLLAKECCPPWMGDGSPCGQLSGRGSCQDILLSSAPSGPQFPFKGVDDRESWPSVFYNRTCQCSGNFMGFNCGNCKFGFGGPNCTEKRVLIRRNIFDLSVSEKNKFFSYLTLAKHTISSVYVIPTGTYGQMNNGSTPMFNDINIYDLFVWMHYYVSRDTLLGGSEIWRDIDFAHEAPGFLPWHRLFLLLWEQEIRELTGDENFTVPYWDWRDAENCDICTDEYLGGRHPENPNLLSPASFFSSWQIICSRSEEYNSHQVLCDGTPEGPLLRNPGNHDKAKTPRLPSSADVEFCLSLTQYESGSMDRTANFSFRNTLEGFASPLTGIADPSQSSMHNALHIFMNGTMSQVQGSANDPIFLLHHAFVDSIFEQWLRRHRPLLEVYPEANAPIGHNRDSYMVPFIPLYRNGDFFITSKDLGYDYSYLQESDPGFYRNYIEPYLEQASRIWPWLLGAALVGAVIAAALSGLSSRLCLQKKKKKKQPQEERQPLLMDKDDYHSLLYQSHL
Experimental: Briefly, B16F10 cells were seeded at 1 × 10^5 cells/well in a 6-well plate and allowed to adhere to well bottoms for 24 h. […] Then, a stimulator (0.5 µM α-MSH plus 200 µM IBMX) was applied to increase the cellular tyrosinase activity, and the cells were cultured for 72 h under the conditions used for cell cultures. Cultured cells were washed twice with PBS and exposed to an aliquot (100 µL) of the lysis buffer solution containing 20% Triton X-100 (5 µL), 50 mM phosphate buffer (pH 6.5, 90 µL), and 2 mM phenylmethylsulfonyl fluoride (5 µL) to lyse the cultured cells for 30 min at −80 °C. After defrosting, the cell lysates were transferred to microcentrifuge tubes and centrifuged for 30 min at 4 °C and 12,000 rpm, and the supernatants (80 µL) in each well were mixed with 20 µL L-dopa (2 mg/mL) and incubated at 37 °C for 10 min. The absorbance of dopachrome was measured at 475 nm using a microplate reader (VersaMax; Molecular Devices).

[3] = DPPH radical scavenging assay; settings: test samples 500 µM; DPPH 0.18 mM; 30 min in the dark
Experimental: DPPH is a light-sensitive compound containing free radicals. The DPPH assay is one of the most common methods for evaluating the antioxidant activity of a compound. The effects of BABT derivatives on DPPH radical scavenging activities were evaluated using L-ascorbic acid as a positive reference control. DPPH radical scavenging activities were measured after leaving the mixed samples (test samples of 500 µM plus DPPH solution of 0.18 mM) in the dark for 30 min. To determine the radical scavenging activities, the absorbance of the mixed samples was measured at 517 nm.
According to previously described methods, with minor modifications, the DPPH radical scavenging activities of BABT derivatives 1–14 were measured. A DPPH (0.2 mM) and methanol solution (180 µL) was mixed with 20 µL of a DMSO solution containing 5 mM BABT derivative, or with 20 µL of an aqueous solution of 5 mM L-ascorbic acid, in each well of a 96-well plate and kept at ambient temperature in the dark for 30 min. The optical density of each well was measured at 517 nm using a microplate reader (VersaMax; Molecular Devices). L-Ascorbic acid was used as a positive reference control, and the DPPH radical scavenging abilities of BABT derivatives were compared with those of L-ascorbic acid. All experiments were performed independently, thrice.

inhibition of cellular tyrosinase activity (in words) ([2]; 5 µM): more than that by kojic acid at 20 µM
cellular tyrosinase activity compared to untreated control ([2]; 20 µM): 1.7 fold
Structure (SMILES): O=C1N=C(NCc2ccccc2)S/C1=C\c1ccc(O)cc1O [Compound 8, (Z)-2-(benzylamino)-5-(2,4-dihydroxybenzylidene)thiazol-4(5H)-one]
cytotoxicity [1]: no cytotoxicity until 72 h at all tested concentrations
DPPH radical scavenging activity, % inhibition [3]: 76%
